Source: paper PMC8359396, “Pharmacological validation of TDO as a target for Parkinson’s disease” (The Febs Journal, 2021)

Tests used:
[1] = In vivo pharmacokinetics and brain penetration; details: for AUC: AUCplasma; for Cmax: plasma; for half-life: t½; for Kp uu: Kpuu (unbound brain‐to‐plasma partition coefficient)
[2] = tested on: TDO activity in vivo; test: Trp and Kyn levels in plasma and brain of the PK studies (LC‐MS/MS); parameters: species or system male C57BL/6NCrl mice; details: mice, single p.o. 100 mg·kg^−1
[3] = tested on: rotenone‐induced mouse model of PD; test: TH‐positive (dopaminergic) cells in substantia nigra, iDISCO; type: in vivo, male C57BL/6NCrl mice; details: rotenone mice; highest dose (100 mg·kg^−1); P < 0.01
[4] = tested on: rotenone‐induced mouse model of PD; test: α‐Synuclein immunofluorescent staining of colon in rotenone model; type: in vivo, male C57BL/6NCrl mice; details: rotenone mice; all doses: 25 mg·kg^−1, P < 0.05; 50 and 100 mg·kg^−1, P < 0.01
Description: (§1) Parkinson’s disease is associated with the activation of glial cells in the enteric nervous system. Furthermore, aggregates of α‐synuclein have been observed in the enteric nervous system of PD patients. The expression of glial fibrillary acidic protein (GFAP), a marker of enteric glial cells, and of α‐synuclein was determined by immunofluorescent staining of fixed sections of the colons of the sacrificed mice.
(§2) Expression of GFAP and α‐synuclein in colonic tissue was determined using confocal microscopy (Leica SP8). The colons of the mice were embedded in paraffin. Sections of 15 µm were cut and incubated with 0.3% (v/v) H2O2 for 30 min, rehydrated and incubated with citrate buffer. Following blocking with serum, the sections were incubated overnight with rabbit anti‐α‐synuclein (Millipore, cat. no. AB5038; Burlington, MA, USA) at a dilution of 1 : 1000, or rabbit anti‐GFAP (Dako, cat. no. Z0334), 1 : 1000. After incubation with Alexa® 488‐labeled donkey anti‐rabbit secondary antibody, the slides were mounted using Vectashield® medium for fluorescence with DAPI (Vector Laboratories, cat. no. H‐1000; Burlingame, CA, USA).
(§3) Immunofluorescence images were made using a Keyence BZ‐9000 microscope. GFAP and α‐synuclein staining were quantified by calculation of the corrected total fluorescence (CTF) with the formula: integrated density – (area × mean fluorescence of background reading).

[5] = tested on: rotenone‐induced mouse model of PD; test: GFAP immunofluorescent staining of colon in rotenone model; type: in vivo, male C57BL/6NCrl mice; details: rotenone mice; highest two doses (50 and 100 mg·kg^−1); P < 0.0001 for both doses
Description: as §1, §2, §3

[6] = tested on: rotenone‐induced mouse model of PD; test: Rotarod test in rotenone model; type: in vivo, male C57BL/6NCrl mice; details: two highest doses p.o. once daily: 50 mg·kg^−1, P < 0.01 at day 35; 100 mg·kg^−1, P < 0.01
Description: To investigate the effects of TDO inhibition, both compounds were orally administered once daily from day 7 after induction of the PD model (Fig. 5A). […] In this test, the time spent on an accelerating wheel was used to analyze motor function.
Food and water was provided ad libitum.
Motor function was assessed in the rotarod test by placing mice on an accelerating rod with speeds starting at 2 rpm and gradually increasing to 20 rpm. The latency to fall was recorded for a maximum of 300 s. Baseline motor function was tested seven days after surgery, and subsequently, motor function was tested every seven days until day 42.

[7] = target: T1, GL‐261‐mTDO (Mus musculus, UniProt P48776); test: Cell-based TDO assay, GL‐261‐mTDO cells (pDMAB)
T1 construct: stably overexpressing the full‐length mouse TDO2 cDNA (GL‐261‐mTDO); expressed in transfected cells; host or cells: GL-261
T1 sequence (P48776 whole entry): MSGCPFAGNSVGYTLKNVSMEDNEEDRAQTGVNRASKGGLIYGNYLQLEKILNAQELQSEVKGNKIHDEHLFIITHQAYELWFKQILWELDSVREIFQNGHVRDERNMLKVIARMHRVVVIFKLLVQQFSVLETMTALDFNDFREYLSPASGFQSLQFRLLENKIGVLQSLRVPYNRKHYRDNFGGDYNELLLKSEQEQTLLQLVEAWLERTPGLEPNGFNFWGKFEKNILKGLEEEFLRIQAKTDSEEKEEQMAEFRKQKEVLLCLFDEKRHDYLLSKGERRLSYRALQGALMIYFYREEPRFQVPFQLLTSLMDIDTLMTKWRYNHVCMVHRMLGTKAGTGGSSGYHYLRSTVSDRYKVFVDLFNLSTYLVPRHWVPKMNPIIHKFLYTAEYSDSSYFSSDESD

[8] = tested on: any cell line used in this study; test: Cell viability assay (ATPlite 1Step); details: in parallel with the cell‐based NFK Green assays
Description: In parallel with the cell‐based NFK Green assays, the cytotoxicity of the compounds was determined in cell viability assays using ATPlite™ 1Step (PerkinElmer, Groningen, The Netherlands).

[9] = tested on: rotenone‐induced mouse model of PD; test: Spatial memory test in rotenone model; details: rotenone mice; 42 days after surgery; highest dose (100 mg·kg^−1); P < 0.001
[10] = target: hTDO2‐overexpressing HEK‐293 cells (HEK‐hTDO) (Homo sapiens, UniProt P48775); test: Cell-based TDO assay, HEK‐hTDO cells (NFK Green)
Chain of hTDO2‐overexpressing HEK‐293 cells (HEK‐hTDO) (P48775 whole entry): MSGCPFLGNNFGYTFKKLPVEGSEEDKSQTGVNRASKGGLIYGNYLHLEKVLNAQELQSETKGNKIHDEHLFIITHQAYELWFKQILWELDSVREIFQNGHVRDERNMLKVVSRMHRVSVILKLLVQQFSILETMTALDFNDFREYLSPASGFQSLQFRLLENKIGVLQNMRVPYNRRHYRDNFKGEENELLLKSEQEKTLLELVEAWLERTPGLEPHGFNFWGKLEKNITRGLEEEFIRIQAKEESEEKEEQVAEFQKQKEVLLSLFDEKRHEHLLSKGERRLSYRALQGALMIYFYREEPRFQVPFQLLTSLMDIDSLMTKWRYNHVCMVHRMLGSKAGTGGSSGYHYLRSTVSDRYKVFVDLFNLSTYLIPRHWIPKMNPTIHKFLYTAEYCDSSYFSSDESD

[11] = target: T2, human MDR1 P-glycoprotein (ABCB1) (Homo sapiens, UniProt P08183); test: Bi‐directional transport assay, MDCK‐MDR1 monolayer; type: in vitro ADME; details: dog; MDCK‐MDR1; Elacridar −
T2 construct: host or cells: MDCK (canine kidney)
T2 sequence (P08183 whole entry): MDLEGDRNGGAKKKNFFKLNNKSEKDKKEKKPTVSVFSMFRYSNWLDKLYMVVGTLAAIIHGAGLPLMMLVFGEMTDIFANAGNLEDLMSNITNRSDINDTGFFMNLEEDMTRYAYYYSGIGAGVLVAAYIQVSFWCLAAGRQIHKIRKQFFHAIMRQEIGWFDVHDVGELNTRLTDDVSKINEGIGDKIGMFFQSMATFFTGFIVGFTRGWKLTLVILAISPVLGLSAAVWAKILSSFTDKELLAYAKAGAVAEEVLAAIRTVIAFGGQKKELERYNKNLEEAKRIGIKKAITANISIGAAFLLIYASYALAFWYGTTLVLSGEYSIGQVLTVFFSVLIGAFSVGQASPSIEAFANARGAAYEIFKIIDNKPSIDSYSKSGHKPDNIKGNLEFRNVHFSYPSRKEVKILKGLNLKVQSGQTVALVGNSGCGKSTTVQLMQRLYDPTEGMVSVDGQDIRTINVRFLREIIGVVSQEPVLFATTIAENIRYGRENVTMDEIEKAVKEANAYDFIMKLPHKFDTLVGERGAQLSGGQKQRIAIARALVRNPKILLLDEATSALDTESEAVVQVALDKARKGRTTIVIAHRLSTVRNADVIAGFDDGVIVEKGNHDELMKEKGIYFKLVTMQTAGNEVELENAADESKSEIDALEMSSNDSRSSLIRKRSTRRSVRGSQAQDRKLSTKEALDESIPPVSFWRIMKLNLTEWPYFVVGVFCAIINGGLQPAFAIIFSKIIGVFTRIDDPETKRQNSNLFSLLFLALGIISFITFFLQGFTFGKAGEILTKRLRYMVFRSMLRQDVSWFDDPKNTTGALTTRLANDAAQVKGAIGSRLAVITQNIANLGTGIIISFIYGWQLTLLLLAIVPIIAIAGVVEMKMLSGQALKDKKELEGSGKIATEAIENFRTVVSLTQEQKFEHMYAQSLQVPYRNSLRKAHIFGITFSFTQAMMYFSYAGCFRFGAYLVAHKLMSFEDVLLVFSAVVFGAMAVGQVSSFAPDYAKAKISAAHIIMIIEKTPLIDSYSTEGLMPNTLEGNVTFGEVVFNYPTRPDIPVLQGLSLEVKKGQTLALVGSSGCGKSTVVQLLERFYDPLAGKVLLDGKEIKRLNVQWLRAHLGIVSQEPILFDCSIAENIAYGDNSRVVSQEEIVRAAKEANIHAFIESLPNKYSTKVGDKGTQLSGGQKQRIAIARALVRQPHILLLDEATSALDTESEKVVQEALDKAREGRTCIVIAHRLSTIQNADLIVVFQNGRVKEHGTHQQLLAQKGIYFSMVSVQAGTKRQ
Description: (§4) To determine whether NTRC 3531‐0 could potentially enter the brain, a bi‐directional transport assay was performed with Madin‐Darby canine kidney (MDCK) cells overexpressing the human ABCB1 gene‐encoded MDR1 P‐glycoprotein (MDCK‐MDR1) at Cyprotex (Macclesfield, UK). MDCK‐MDR1 cells form a confluent monolayer in Transwell® cell culture plates (Corning) and express active MDR1 P‐glycoprotein at the apical side. The cell model is a surrogate model of the brain capillary endothelial cell layer that constitutes the blood–brain barrier. The transport of NTRC 3531‐0 from the apical (A) to the basolateral (B) side of the monolayer (P app, A to B), and from basolateral (B) to apical (A) (P app, B to A), was determined by measuring compound levels in the two compartments of the Transwell plates by liquid chromatography–tandem mass spectrometry (LC‐MS/MS) (Table 2). Transport assays were performed in the absence and presence of the P‐glycoprotein inhibitor elacridar.

[12] = target: T3, human MDR1 P‐glycoprotein‐overexpressing MDCK cells (Homo sapiens, UniProt P08183); test: as above; type: in vitro ADME; details: MDCK‐MDR1, with and without elacridar
T3 construct: host or cells: MDCK (canine kidney)
T3 sequence (P08183 whole entry): as above
Description: as §4

[13] = tested on: rotenone‐induced mouse model of PD; test: Colon length in rotenone model; details: rotenone mice; highest dose (100 mg·kg^−1); P < 0.05
[14] = target: recombinant hIDO1 (Homo sapiens, UniProt P14902); test: IDO1 biochemical assay (NFK Green)
Chain of recombinant hIDO1 (P14902 whole entry): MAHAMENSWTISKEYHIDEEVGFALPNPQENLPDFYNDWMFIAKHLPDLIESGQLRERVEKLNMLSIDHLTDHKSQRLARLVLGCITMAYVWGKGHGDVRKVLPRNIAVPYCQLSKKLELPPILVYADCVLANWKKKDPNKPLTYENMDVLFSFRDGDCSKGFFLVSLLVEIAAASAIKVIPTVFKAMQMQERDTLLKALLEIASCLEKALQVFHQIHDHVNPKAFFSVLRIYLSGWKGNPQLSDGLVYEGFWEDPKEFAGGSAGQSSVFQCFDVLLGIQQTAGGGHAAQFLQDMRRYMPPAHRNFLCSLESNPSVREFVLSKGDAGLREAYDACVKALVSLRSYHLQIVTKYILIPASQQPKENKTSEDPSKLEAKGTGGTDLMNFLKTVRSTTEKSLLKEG

[15] = male, C57BL/6NCrl, mouse, in vivo, iv, 10 mg, mice, 10 mg∙kg^−1
[16] = male, C57BL/6NCrl, mouse, in vivo, po, 100 mg
[17] = male, C57BL/6NCrl, mouse, in vivo, po, 100 mg, mice, 5‐day p.o., 100 mg∙kg^−1
[18] = male, C57BL/6NCrl, mouse, in vivo, po, 100 mg, mice, single p.o., 100 mg∙kg^−1

C[C@@H](CO)NC(=O)c1ccc(-c2c[nH]c3cc(F)ccc23)cc1 [NTRC 3531‐0]
bioavailability ([1]; male, C57BL/6NCrl, mouse, in vivo, 100 mg/kg, F (oral bioavailability), mice, single p.o. 100 mg∙kg^−1 compared with single i.v. 10 mg∙kg^−1): 22% | AUC [1, 15]: 93.2 µM·h | Cmax [1, 15]: 56.5 µM | half-life [1, 15]: 0.903 h | Kp [1, 16]: 0.41 | Kp at 5 days [1, 16]: 0.37 | AUC [1, 17]: 210 µM·h | AUC [1, 18]: 207 µM·h | Cmax [1, 17]: 33.2 µM | Cmax [1, 18]: 37.5 µM | Kp uu [1, 17]: 0.067 | Kp uu [1, 18]: 0.074 | half-life [1, 17]: 3.13 h | half-life [1, 18]: 2.49 h | AUCbrain ([1]; mice, 5‐day p.o., 100 mg∙kg^−1): 77.0 µM·h | F (oral bioavailability) ([1]; mice, single p.o. 100 mg∙kg^−1 compared with single i.v. 10 mg∙kg^−1): 22.3% | AUCbrain ([1]; mice, single p.o., 100 mg∙kg^−1): 84.5 µM·h | Kyn levels in plasma at early timepoints ([2]; 0.25 and 0.5 h, no statistical significance): slightly decreased | Kyn levels in plasma, subsequent timepoints ([2]; 1 and 2 h, P < 0.05): increased | concentration of Trp in plasma compared to vehicle ([2]; 1 h P < 0.01, 2 h P < 0.0001, 7 h P < 0.01): increase | Kyn levels in brain ([2]; 12 h P < 0.01, 24 h P < 0.05): increased | concentration of Trp in brain compared to vehicle ([2]; P < 0.0001 at 1, 12 and 24 h): increase | rotenone‐induced loss of TH‐positive cells in the SN [3]: decreased the rotenone‐induced loss of TH‐positive cells | expression of α‐synuclein in the enteric plexus [4]: decrease in the expression of α‐synuclein | GFAP staining in colon [5]: decrease of GFAP staining | motor function (rotarod) of rotenone‐treated mice [6]: significantly improved motor function | IC50 [7]: 0.214 µM | cytotoxicity [8]: not cytotoxic | rotenone‐induced spatial recognition loss [9]: significantly less rotenone‐induced spatial recognition loss | IC50 [10]: 0.816 µM | selectivity for hTDO over hIDO1, HEK‐293 cell‐based assays [10]: at least 25 times | IC90 ([10]; HEK293): 2.5 µM | Papp A→B [11]: 157 nm/s | Papp B→A [11]: 520 nm/s | efflux ratio [11]: 3.32 | P‐glycoprotein substrate status [12]: could be a weak substrate of P‐glycoprotein | colon length (rotenone‐induced intestinal inflammatory response) [13]: reduced the rotenone‐induced intestinal inflammatory response | activity on hIDO1 in the biochemical assay ([14]; highest tested concentration 31.6 µM): inactive | inhibition at 0.6 µM ([14]; read-out: inhibition hIDO1): < 20%
